What all share (type): in vivo
Assay [1] relates to Echinochloa crus-galli (ECHCG). Kind of assay: Post-emergence herbicidal activity, glasshouse pot test. The note with it: Echinochloa crus-galli, 312 h, rate 250 g/ha, evaluated after 13 days, read-out: Post-emergence activity ECHCG (100=total damage to plant; 0=no damage to plant). Summed up:
(§1)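 After sowing in standard soil, pots were cultivated for one day (pre-emergence) or eight days (post-emergence), then sprayed. Plants were watered twice daily in the glasshouse, and damage was rated 13 days after treatment, 0 being none and 100 total.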

Assay [2] relates to Avena fatua (AVEFA). The description is as above. As to conditions: Avena fatua, 312 h, rate 250 g/ha, evaluated after 13 days, read-out: Post-emergence activity AVEFA (100=total damage to plant; 0=no damage to plant). Summed up: as §1
Assay [3] deals with Alopecurus myosuroides (ALOMY). The assay is described as above. The note with it: Alopecurus myosuroides, 312 h, rate 250 g/ha, evaluated after 13 days, read-out: Post-emergence activity ALOMY (100=total damage to plant; 0=no damage to plant). Summed up:
as §1

Assay [4] deals with Lolium perenne (LOLPE). The assay is described as above. The note with it: Lolium perenne, 312 h, rate 250 g/ha, evaluated after 13 days, read-out: Post-emergence activity LOLPE (100=total damage to plant; 0=no damage to plant). Summed up: as §1
For assay [5], the system named is Echinochloa crus-galli (ECHCG). Put plainly: Pre-emergence herbicidal activity, glasshouse pot test. The note with it: Echinochloa crus-galli, 312 h, Rate 250 g/ha, evaluated after 13 days, read-out: Pre-emergence activity ECHCG (100=total damage to plant; 0=no damage to plant). Summed up:
as §1

In assay [6] the test system is Avena fatua (AVEFA). Described as above. As to conditions: Avena fatua, 312 h, Rate 250 g/ha, evaluated after 13 days, read-out: Pre-emergence activity AVEFA (100=total damage to plant; 0=no damage to plant). Summed up: as §1
The subject of assay [7] is Alopecurus myosuroides (ALOMY). The assay is described as above. The note with it: Alopecurus myosuroides, 312 h, Rate 250 g/ha, evaluated after 13 days, read-out: Pre-emergence activity ALOMY (100=total damage to plant; 0=no damage to plant). Summed up:
as §1

The subject of assay [8] is Lolium perenne (LOLPE). The assay is described as above. As to conditions: Lolium perenne, 312 h, Rate 250 g/ha, evaluated after 13 days, read-out: Pre-emergence activity LOLPE (100=total damage to plant; 0=no damage to plant). Summed up:
as §1

For the compound `CCc1ccc(Oc2ccc(C(F)(F)F)cc2Cl)cc1C1=C(O)[C@H]2CC[C@H](C2)C1=O` [Example A-331], the pest or weed control at 250 g/ha amounted to 100% in assay [1] (glasshouse); 80% with Avena fatua (AVEFA) [2] (glasshouse); 80% in assay [3] (glasshouse); 80% in the assay with Lolium perenne (LOLPE) [4] (glasshouse); 100% in assay [5] (pre-emergence spray); 80% in the assay with Avena fatua (AVEFA) [6] (pre-emergence spray). For the same compound, the values for the pest or weed control at 250 g/ha (in assay [7] (pre-emergence spray); in the assay with Lolium perenne (LOLPE) [8] (pre-emergence spray)) were 90% and 100%, respectively.

On to `CCc1ccc(Oc2nc3ccccc3o2)cc1C1=C(O)C(C)(C)OC(C)(C)C1=O` [Example A-118], for which the pest or weed control at 250 g/ha stood at 100% in assay [1] (glasshouse); 80% in the assay with Avena fatua (AVEFA) [2] (glasshouse); 90% in assay [3] (glasshouse); 100% in the assay with Lolium perenne (LOLPE) [4] (glasshouse); 100% in assay [5] (pre-emergence spray); 80% in the assay on Avena fatua (AVEFA) [6] (pre-emergence spray). The pest or weed control at 250 g/ha (in assay [7] (pre-emergence spray); in the assay on Lolium perenne (LOLPE) [8] (pre-emergence spray)) was 100% each time.

In the case of `CCc1ccc(Oc2ncc(Cl)cc2Cl)cc1C1=C(O)[C@@H]2CC[C@](C)(C1=O)C2(C)C` [Example A-318], the pest or weed control at 250 g/ha in assay [1] (glasshouse) was found to be 100%; with Avena fatua (AVEFA) [2] (glasshouse), 90%; in assay [3] (glasshouse), 90%; in the assay on Lolium perenne (LOLPE) [4] (glasshouse) it was 100%; in assay [5] (pre-emergence spray) it was 100%; in the assay with Avena fatua (AVEFA) [6] (pre-emergence spray), 90%. For the same compound, the values for the pest or weed control at 250 g/ha (in assay [7] (pre-emergence spray); with Lolium perenne (LOLPE) [8] (pre-emergence spray)) were 90% and 100%, respectively.

Take `CCc1ccc(Oc2ccc(Br)cc2)cc1C1=C(O)CC2(CCOCC2)CC1=O` [Example A-37]: the pest or weed control at 250 g/ha in assay [1] (glasshouse) worked out at 100%; in the assay with Avena fatua (AVEFA) [2] (glasshouse), 100%; in assay [3] (glasshouse), 100%; with Lolium perenne (LOLPE) [4] (glasshouse), 90%; in assay [5] (pre-emergence spray), 100%; in the assay with Avena fatua (AVEFA) [6] (pre-emergence spray), 70%. In addition, the pest or weed control at 250 g/ha in assay [7] (pre-emergence spray) turned out to be 70%; in the assay with Lolium perenne (LOLPE) [8] (pre-emergence spray) it was 80%.

Consider `CCc1ccc(Oc2ncc(C(F)(F)F)cc2F)cc1C1=C(O)CC2(CCOCC2)CC1=O` [Example A-273], for which the pest or weed control at 250 g/ha (in assay [1] (glasshouse); with Avena fatua (AVEFA) [2] (glasshouse); in assay [3] (glasshouse); with Lolium perenne (LOLPE) [4] (glasshouse); in assay [5] (pre-emergence spray); in the assay on Avena fatua (AVEFA) [6] (pre-emergence spray)) was 100% each time. Besides, the pest or weed control at 250 g/ha (in assay [7] (pre-emergence spray); with Lolium perenne (LOLPE) [8] (pre-emergence spray)) was 100% throughout.

On to `CCc1ccc(Oc2ccc(C(F)(F)F)c(Cl)c2)cc1C1=C(O)CC2(CCOCC2)CC1=O` [Example A-278], for which the pest or weed control at 250 g/ha in assay [1] (glasshouse) worked out at 100%; in the assay on Avena fatua (AVEFA) [2] (glasshouse), 100%; in assay [3] (glasshouse) it was 100%; in the assay with Lolium perenne (LOLPE) [4] (glasshouse) it was 100%; in assay [5] (pre-emergence spray), 0%; with Avena fatua (AVEFA) [6] (pre-emergence spray), 70%. Also, the figures for the pest or weed control at 250 g/ha (in assay [7] (pre-emergence spray); in the assay on Lolium perenne (LOLPE) [8] (pre-emergence spray)) were 60% and 70%, respectively.

With `CCc1ccc(Oc2ccc(OC(F)(F)F)cc2)cc1C1=C(O)[C@H]2CC[C@H](C2)C1=O` [Example A-248], the pest or weed control at 250 g/ha in assay [1] (glasshouse) is 100%; with Avena fatua (AVEFA) [2] (glasshouse), 100%; in assay [3] (glasshouse) it was 100%; in the assay on Lolium perenne (LOLPE) [4] (glasshouse), 100%; in assay [5] (pre-emergence spray), 100%; in the assay on Avena fatua (AVEFA) [6] (pre-emergence spray), 80%. Further, the pest or weed control at 250 g/ha in assay [7] (pre-emergence spray) turned out to be 90%; with Lolium perenne (LOLPE) [8] (pre-emergence spray), 100%.

Regarding `CCc1ccc(Oc2ccc(C(F)(F)F)cc2Cl)cc1C1=C(O)[C@@H]2CC[C@](C)(C1=O)C2(C)C` [Example A-314], the pest or weed control at 250 g/ha was determined as 100% in assay [1] (glasshouse); 70% with Avena fatua (AVEFA) [2] (glasshouse); 40% in assay [3] (glasshouse); 70% in the assay with Lolium perenne (LOLPE) [4] (glasshouse); 100% in assay [5] (pre-emergence spray); 20% in the assay with Avena fatua (AVEFA) [6] (pre-emergence spray). The pest or weed control at 250 g/ha in assay [7] (pre-emergence spray) was 30%; in the assay with Lolium perenne (LOLPE) [8] (pre-emergence spray), 100%.

In the case of `CCc1ccc(Oc2ncc(Cl)cc2[N+](=O)[O-])cc1C1=C(O)C(C)(C)OC(C)(C)C1=O` [Example A-162], the pest or weed control at 250 g/ha turned out to be 90% in assay [1] (glasshouse); 50% in the assay on Avena fatua (AVEFA) [2] (glasshouse); 80% in assay [3] (glasshouse); 70% in the assay on Lolium perenne (LOLPE) [4] (glasshouse); 60% in assay [5] (pre-emergence spray); 10% with Avena fatua (AVEFA) [6] (pre-emergence spray). For the same compound, the results for the pest or weed control at 250 g/ha (in assay [7] (pre-emergence spray); with Lolium perenne (LOLPE) [8] (pre-emergence spray)) were 30% and 50%, respectively.

`CCc1ccc(Oc2ncc(C(F)(F)F)cc2Cl)cc1C1=C(O)CC2(CCOCC2)CC1=O` [Example A-272]: the pest or weed control at 250 g/ha is 100% in assay [1] (glasshouse); 90% in the assay with Avena fatua (AVEFA) [2] (glasshouse); 90% in assay [3] (glasshouse); 70% in the assay with Lolium perenne (LOLPE) [4] (glasshouse); 100% in assay [5] (pre-emergence spray); 100% in the assay with Avena fatua (AVEFA) [6] (pre-emergence spray). In addition, the pest or weed control at 250 g/ha (in assay [7] (pre-emergence spray); in the assay on Lolium perenne (LOLPE) [8] (pre-emergence spray)) was 100% throughout.

Turning to `CC1(C)OC(C)(C)C(O)=C(c2cc(Oc3nc4ccccc4s3)ccc2C2CC2)C1=O` [Example A-365], the pest or weed control at 250 g/ha in assay [1] worked out at 100%; in the assay on Avena fatua (AVEFA) [2], 10%; in assay [3], 100%; in the assay on Lolium perenne (LOLPE) [4] it was 100%; in assay [5] (pre-emergence), 100%; in the assay with Avena fatua (AVEFA) [6] (pre-emergence) it was 0%. In addition, the pest or weed control at 250 g/ha in assay [7] (pre-emergence) is 80%; in the assay on Lolium perenne (LOLPE) [8] (pre-emergence), 90%.

For `CC1(C)OC(C)(C)C(O)=C(c2cc(Oc3ccc(Cl)cc3)ccc2OC(F)(F)F)C1=O` [Example A-302], the pest or weed control at 250 g/ha in assay [1] (glasshouse) was found to be 100%; in the assay with Avena fatua (AVEFA) [2] (glasshouse), 50%; in assay [3] (glasshouse) it was 60%; in the assay with Lolium perenne (LOLPE) [4] (glasshouse) it was 70%; in assay [5] (pre-emergence spray) it was 60%; in the assay on Avena fatua (AVEFA) [6] (pre-emergence spray), 40%. Besides, the pest or weed control at 250 g/ha came out at 10% in assay [7] (pre-emergence spray) and 20% with Lolium perenne (LOLPE) [8] (pre-emergence spray).

For the compound `CCc1ccc(Oc2ccc(Br)cc2Cl)cc1C1=C(O)[C@H]2CC[C@H](C2)C1=O` [Example A-244], the pest or weed control at 250 g/ha was found to be 90% in assay [1] (glasshouse); 70% in the assay on Avena fatua (AVEFA) [2] (glasshouse); 60% in assay [3] (glasshouse); 80% with Lolium perenne (LOLPE) [4] (glasshouse); 90% in assay [5] (pre-emergence spray); 0% with Avena fatua (AVEFA) [6] (pre-emergence spray). In addition, the pest or weed control at 250 g/ha in assay [7] (pre-emergence spray) is 20%; with Lolium perenne (LOLPE) [8] (pre-emergence spray) it was 70%.

In the case of `CCc1ccc(Oc2cnc3cc(Cl)ccc3n2)cc1C1=C(O)CC2(CCOCC2)CC1=O` [Example A-233], the pest or weed control at 250 g/ha in assay [1] (glasshouse) worked out at 100%; in the assay on Avena fatua (AVEFA) [2] (glasshouse), 100%; in assay [3] (glasshouse) it was 100%; with Lolium perenne (LOLPE) [4] (glasshouse) it was 100%; in assay [5] (pre-emergence spray) it was 100%; with Avena fatua (AVEFA) [6] (pre-emergence spray) it was 70%. Further, the pest or weed control at 250 g/ha in assay [7] (pre-emergence spray) worked out at 70%; in the assay with Lolium perenne (LOLPE) [8] (pre-emergence spray), 90%.

Turning to `CCc1ccc(Oc2ccc([N+](=O)[O-])c(Cl)c2)cc1C1=C(O)C(C)(C)OC(C)(C)C1=O` [Example A-67], the pest or weed control at 250 g/ha in assay [1] (glasshouse) was found to be 100%; in the assay with Avena fatua (AVEFA) [2] (glasshouse), 80%; in assay [3] (glasshouse), 100%; in the assay on Lolium perenne (LOLPE) [4] (glasshouse), 90%; in assay [5] (pre-emergence spray) it was 100%; in the assay with Avena fatua (AVEFA) [6] (pre-emergence spray), 90%. Moreover, the pest or weed control at 250 g/ha is 90% in assay [7] (pre-emergence spray) and 100% in the assay on Lolium perenne (LOLPE) [8] (pre-emergence spray).

Values taken from patent US8865623B2, “Herbicidally active cyclic diones and derivatives thereof, processes for their preparation, compositions, and method of controlling weeds” (Syngenta Limited, priority 2009, dated 2014).
